Measurements taken from ChEMBL document CHEMBL5705899 (Biochem J, 2014).
Calls of active or inactive are those of the source.

What was measured:
[1] = molecular target: Serine/threonine-protein kinase 3 (Homo sapiens) (UniProt Q13188); assay: Inhibition of recombinant human N-terminal GST-tagged MST2 (2 to 491 residues) expressed in baculovirus infected Sf21 cells assessed as remaining activity at 1 uM using MBP as substrate incubated for 30 mins in presence of [gamma-33P]ATP by filter binding method relative to control
Serine/threonine-protein kinase 3 (Homo sapiens), sequence (Q13188 whole entry, the tested form may be a part): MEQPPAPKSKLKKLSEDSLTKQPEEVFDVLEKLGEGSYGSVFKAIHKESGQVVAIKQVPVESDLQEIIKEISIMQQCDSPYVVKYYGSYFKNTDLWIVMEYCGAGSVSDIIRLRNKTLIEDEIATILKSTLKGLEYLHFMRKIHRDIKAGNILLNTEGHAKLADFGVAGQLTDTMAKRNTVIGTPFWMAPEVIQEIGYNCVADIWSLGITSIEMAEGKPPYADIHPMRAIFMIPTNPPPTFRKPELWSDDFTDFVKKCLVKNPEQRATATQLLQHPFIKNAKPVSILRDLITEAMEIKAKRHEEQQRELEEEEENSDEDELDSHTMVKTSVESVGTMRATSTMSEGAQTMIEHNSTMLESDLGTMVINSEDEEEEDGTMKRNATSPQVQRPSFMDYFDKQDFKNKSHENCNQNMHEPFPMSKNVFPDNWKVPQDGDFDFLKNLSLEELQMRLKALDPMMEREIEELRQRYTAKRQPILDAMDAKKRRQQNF

[2] = test system: Ribosomal protein S6 kinase beta-1 (Homo sapiens), P23443 [T412E]; assay: Inhibition of recombinant human His6-tagged S6K1 T412E mutant (1 to 421 residues) expressed in baculovirus infected sf21 cells assessed as remaining activity at 1 uM using KKRNRTLTVas substrate incubated for 30 mins in presence of [gamma-33P]ATP by filter binding method relative to control
[3] = molecular target: Mitogen-activated protein kinase 8 (Homo sapiens) (UniProt P45983); assay: Inhibition of recombinant human His6-tagged JNK1 (1 to 384 residues) expressed in baculovirus infected Sf21 cells assessed as remaining activity at 1 uM using ATF2 as substrate incubated for 30 mins in presence of [gamma-33P]ATP by filter binding method relative to control
[4] = molecular target: Serine/threonine-protein kinase MARK2 (Homo sapiens) (UniProt Q7KZI7); assay: Inhibition of recombinant human N-terminal His6-tagged MARK2 (2 to 691 residues) expressed in baculovirus infected Sf21 cells assessed as remaining activity at 1 uM using KKKVSRSGLYRSPSMPENLNRPR as substrate incubated for 30 mins in presence of [gamma-33P]ATP by filter binding method relative to control
[5] = molecular target: CDK2/Cyclin A2 (Homo sapiens) (UniProt P24941+P20248); assay: Inhibition of recombinant human N-terminal GST-tagged CDK2 (2 to 298 residues)/N-terminal GST-tagged Cyclin A2 (171 to 432 residues) expressed in Escherichia coli assessed as remaining activity at 1 uM using YSPTSPSYSPTSPSYSPTSPKKK as substrate incubated for 30 mins in presence of [gamma-33P]ATP by filter binding method relative to control
[6] = molecular target: Fibroblast growth factor receptor 3 (Homo sapiens) (UniProt P22607); assay: Inhibition of human FGFR3 at 1 uM using polyEY as substrate in presence of 33P-ATP by ProQinase assay
[7] = molecular target: BDNF/NT-3 growth factors receptor (Homo sapiens) (UniProt Q16620); assay: Inhibition of human TRKB at 1 uM using polyEY as substrate in presence of 33P-ATP by ProQinase assay
BDNF/NT-3 growth factors receptor (Homo sapiens), sequence (Q16620 32-822 limits assumed): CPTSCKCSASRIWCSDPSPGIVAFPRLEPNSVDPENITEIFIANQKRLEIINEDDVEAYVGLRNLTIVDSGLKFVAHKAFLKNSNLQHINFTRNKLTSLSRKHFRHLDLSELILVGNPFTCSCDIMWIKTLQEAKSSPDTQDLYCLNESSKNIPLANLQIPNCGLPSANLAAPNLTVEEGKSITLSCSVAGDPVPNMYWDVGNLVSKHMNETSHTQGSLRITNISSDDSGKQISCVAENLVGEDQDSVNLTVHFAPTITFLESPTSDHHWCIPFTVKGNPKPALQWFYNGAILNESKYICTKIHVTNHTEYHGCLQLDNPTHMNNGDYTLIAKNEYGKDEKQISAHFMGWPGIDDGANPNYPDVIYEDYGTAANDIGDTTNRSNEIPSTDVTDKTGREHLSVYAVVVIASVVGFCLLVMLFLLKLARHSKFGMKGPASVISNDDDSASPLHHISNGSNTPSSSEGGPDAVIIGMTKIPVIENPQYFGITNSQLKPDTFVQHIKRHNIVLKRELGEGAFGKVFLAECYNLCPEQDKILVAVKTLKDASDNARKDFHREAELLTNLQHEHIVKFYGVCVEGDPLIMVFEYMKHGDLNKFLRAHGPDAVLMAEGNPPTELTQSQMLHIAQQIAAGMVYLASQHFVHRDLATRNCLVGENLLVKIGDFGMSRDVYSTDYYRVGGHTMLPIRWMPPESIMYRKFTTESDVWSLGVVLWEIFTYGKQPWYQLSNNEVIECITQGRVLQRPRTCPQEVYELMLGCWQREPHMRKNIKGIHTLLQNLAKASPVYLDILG

[8] = molecular target: Ephrin type-A receptor 8 (Homo sapiens) (UniProt P29322); assay: Inhibition of human EPHA8 at 1 uM using polyEy as substrate in presence of 33P-ATP by ProQinase assay
[9] = molecular target: CDK1/Cyclin E (Homo sapiens) (UniProt P06493+P24864); assay: Inhibition of human CDK1/Cyclin E1at 1 uM using RBER-CHKtide as substrate in presence of 33P-ATP by ProQinase assay; format: protein-complex assay
[10] = molecular target: Protein kinase C beta type (Homo sapiens) (UniProt P05771); assay: Inhibition of human PKCbeta2 at 1 uM using 3xChocktide-PKC as substrate in presence of 33P-ATP by ProQinase assay
Protein kinase C beta type (Homo sapiens), sequence (P05771 2-671 limits assumed): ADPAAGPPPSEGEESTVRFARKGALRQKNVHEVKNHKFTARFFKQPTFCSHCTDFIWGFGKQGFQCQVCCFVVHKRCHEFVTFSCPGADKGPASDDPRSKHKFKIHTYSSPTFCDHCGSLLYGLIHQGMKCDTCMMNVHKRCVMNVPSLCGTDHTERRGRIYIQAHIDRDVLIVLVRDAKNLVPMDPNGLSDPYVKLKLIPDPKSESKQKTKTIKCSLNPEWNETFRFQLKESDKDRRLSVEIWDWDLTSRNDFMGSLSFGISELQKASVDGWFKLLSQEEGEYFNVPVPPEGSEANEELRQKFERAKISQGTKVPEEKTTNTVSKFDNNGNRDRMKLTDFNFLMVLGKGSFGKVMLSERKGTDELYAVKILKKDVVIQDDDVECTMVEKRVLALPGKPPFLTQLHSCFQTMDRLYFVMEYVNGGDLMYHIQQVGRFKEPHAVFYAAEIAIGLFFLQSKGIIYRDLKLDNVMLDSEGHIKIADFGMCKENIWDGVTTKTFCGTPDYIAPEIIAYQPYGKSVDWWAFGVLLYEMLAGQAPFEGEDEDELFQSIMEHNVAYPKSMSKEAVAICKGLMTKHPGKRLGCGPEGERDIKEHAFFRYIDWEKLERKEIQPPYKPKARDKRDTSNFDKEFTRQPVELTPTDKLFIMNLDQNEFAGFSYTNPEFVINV

[11] = molecular target: Ribosomal protein S6 kinase alpha-3 (Homo sapiens) (UniProt P51812); assay: Inhibition of human RPS6KA3 at 1 uM using bio-4xCHKT as substrate in presence of 33P-ATP by ProQinase assay
[12] = molecular target: Serine/threonine-protein kinase Nek9 (Homo sapiens) (UniProt Q8TD19); assay: Inhibition of human NEK9 at 1 uM using RBER-GSK3 as substrate in presence of 33P-ATP by ProQinase assay
[13] = molecular target: Serine/threonine-protein kinase D1 (Homo sapiens) (UniProt Q15139); assay: Inhibition of human PKCmu at 1 uM using RBER-CHKtide as substrate in presence of 33P-ATP by ProQinase assay
[14] = molecular target: 5'-AMP-activated protein kinase catalytic subunit alpha-1 (Homo sapiens) (UniProt Q13131); assay: Inhibition of human AMPKalpha1 (1 to 550 residues) at 1 uM using RBER-CHKtide as substrate in presence of 33P-ATP by ProQinase assay
[15] = molecular target: Protein kinase C zeta type (Homo sapiens) (UniProt Q05513); assay: Inhibition of human PKCzeta at 1 uM using 3xChocktide-PKC as substrate in presence of 33P-ATP by ProQinase assay
Protein kinase C zeta type (Homo sapiens), sequence (Q05513 whole entry): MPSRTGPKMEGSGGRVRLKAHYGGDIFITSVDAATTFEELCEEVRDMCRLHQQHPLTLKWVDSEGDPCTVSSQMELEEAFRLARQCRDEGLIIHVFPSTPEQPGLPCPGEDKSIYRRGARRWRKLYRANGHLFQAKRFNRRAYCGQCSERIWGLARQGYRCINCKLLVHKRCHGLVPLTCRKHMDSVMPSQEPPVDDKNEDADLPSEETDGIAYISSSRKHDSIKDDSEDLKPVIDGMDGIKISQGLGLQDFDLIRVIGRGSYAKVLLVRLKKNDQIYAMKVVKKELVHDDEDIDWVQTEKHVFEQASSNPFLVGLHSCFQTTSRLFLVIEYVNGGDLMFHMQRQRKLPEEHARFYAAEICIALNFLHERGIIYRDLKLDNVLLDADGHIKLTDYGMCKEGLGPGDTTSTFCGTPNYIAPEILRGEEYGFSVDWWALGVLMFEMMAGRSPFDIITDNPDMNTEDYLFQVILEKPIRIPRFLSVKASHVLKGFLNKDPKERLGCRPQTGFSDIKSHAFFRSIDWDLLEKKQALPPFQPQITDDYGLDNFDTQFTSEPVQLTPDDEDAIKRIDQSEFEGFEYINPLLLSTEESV

[16] = molecular target: cAMP-dependent protein kinase catalytic subunit alpha (Homo sapiens) (UniProt P17612); assay: Inhibition of human PKACalpha at 1 uM using bio-4xCHKT as substrate in presence of 33P-ATP by ProQinase assay
[17] = molecular target: Aurora kinase A (Homo sapiens) (UniProt O14965); assay: Inhibition of human AuroraA at 1 uM using bio-4xCHKT as substrate in presence of 33P-ATP by ProQinase assay
[18] = molecular target: Activin receptor type-2A (Homo sapiens) (UniProt P27037); assay: Inhibition of human ACVR2A at 1 uM using casein as substrate in presence of 33P-ATP by ProQinase assay
[19] = molecular target: Serine/threonine-protein kinase Nek3 (Homo sapiens) (UniProt P51956); assay: Inhibition of human NEK3 at 1 uM using RBER-CHKtide as substrate in presence of 33P-ATP by ProQinase assay
[20] = molecular target: Wee1-like protein kinase (Homo sapiens) (UniProt P30291); assay: Inhibition of human WEE1 at 1 uM using poly(Ala,Glu,Lys,Tyr) as substrate in presence of 33P-ATP by ProQinase assay
[21] = molecular target: Serine/threonine-protein kinase WNK3 (Homo sapiens) (UniProt Q9BYP7); assay: Inhibition of human WNK3 at 1 uM using RB-S6P as substrate in presence of 33P-ATP by ProQinase assay
[22] = molecular target: G protein-coupled receptor kinase 5 (Homo sapiens) (UniProt P34947); assay: Inhibition of human GRK5 at 1 uM using casein as substrate in presence of 33P-ATP by ProQinase assay
[23] = molecular target: Casein kinase I isoform delta (Homo sapiens) (UniProt P48730); assay: Inhibition of human CK1delta at 1 uM using casein as substrate in presence of 33P-ATP by ProQinase assay
Casein kinase I isoform delta (Homo sapiens), sequence (P48730 whole entry, looked up, canonical isoform): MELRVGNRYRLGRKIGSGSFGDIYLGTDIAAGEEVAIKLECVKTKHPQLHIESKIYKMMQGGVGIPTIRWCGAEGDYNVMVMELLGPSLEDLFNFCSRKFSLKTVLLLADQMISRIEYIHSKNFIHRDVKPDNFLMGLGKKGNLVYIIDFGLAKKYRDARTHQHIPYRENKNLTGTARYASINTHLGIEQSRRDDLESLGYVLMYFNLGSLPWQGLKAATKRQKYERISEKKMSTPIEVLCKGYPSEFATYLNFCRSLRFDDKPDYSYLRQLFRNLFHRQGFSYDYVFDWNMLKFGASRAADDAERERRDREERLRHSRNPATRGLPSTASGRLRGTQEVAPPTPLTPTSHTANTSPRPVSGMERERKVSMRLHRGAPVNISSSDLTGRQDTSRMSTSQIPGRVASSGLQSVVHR

[24] = molecular target: Testis-specific serine/threonine-protein kinase 1 (Homo sapiens) (UniProt Q9BXA7); assay: Inhibition of human TSSK1 at 1 uM using RBER-CHKtide as substrate in presence of 33P-ATP by ProQinase assay
Testis-specific serine/threonine-protein kinase 1 (Homo sapiens), sequence (Q9BXA7 whole entry, the tested form may be a part): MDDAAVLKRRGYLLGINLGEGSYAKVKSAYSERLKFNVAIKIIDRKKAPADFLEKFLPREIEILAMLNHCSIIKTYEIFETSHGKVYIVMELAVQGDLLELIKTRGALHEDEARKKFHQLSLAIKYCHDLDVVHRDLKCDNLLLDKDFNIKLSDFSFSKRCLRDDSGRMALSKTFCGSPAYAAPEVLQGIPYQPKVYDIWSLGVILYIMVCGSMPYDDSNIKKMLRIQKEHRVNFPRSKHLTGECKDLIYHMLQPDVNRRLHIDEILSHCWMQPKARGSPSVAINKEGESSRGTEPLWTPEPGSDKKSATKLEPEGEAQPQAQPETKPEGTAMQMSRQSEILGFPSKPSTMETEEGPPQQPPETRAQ

[25] = molecular target: T1, Phosphatidylinositol 4-phosphate 3-kinase C2 domain-containing subunit beta (Homo sapiens, UniProt O00750); assay: Inhibition of PI3KC2beta (unknown origin) at 1 uM
T1 sequence (O00750 whole entry, the tested form may be a part): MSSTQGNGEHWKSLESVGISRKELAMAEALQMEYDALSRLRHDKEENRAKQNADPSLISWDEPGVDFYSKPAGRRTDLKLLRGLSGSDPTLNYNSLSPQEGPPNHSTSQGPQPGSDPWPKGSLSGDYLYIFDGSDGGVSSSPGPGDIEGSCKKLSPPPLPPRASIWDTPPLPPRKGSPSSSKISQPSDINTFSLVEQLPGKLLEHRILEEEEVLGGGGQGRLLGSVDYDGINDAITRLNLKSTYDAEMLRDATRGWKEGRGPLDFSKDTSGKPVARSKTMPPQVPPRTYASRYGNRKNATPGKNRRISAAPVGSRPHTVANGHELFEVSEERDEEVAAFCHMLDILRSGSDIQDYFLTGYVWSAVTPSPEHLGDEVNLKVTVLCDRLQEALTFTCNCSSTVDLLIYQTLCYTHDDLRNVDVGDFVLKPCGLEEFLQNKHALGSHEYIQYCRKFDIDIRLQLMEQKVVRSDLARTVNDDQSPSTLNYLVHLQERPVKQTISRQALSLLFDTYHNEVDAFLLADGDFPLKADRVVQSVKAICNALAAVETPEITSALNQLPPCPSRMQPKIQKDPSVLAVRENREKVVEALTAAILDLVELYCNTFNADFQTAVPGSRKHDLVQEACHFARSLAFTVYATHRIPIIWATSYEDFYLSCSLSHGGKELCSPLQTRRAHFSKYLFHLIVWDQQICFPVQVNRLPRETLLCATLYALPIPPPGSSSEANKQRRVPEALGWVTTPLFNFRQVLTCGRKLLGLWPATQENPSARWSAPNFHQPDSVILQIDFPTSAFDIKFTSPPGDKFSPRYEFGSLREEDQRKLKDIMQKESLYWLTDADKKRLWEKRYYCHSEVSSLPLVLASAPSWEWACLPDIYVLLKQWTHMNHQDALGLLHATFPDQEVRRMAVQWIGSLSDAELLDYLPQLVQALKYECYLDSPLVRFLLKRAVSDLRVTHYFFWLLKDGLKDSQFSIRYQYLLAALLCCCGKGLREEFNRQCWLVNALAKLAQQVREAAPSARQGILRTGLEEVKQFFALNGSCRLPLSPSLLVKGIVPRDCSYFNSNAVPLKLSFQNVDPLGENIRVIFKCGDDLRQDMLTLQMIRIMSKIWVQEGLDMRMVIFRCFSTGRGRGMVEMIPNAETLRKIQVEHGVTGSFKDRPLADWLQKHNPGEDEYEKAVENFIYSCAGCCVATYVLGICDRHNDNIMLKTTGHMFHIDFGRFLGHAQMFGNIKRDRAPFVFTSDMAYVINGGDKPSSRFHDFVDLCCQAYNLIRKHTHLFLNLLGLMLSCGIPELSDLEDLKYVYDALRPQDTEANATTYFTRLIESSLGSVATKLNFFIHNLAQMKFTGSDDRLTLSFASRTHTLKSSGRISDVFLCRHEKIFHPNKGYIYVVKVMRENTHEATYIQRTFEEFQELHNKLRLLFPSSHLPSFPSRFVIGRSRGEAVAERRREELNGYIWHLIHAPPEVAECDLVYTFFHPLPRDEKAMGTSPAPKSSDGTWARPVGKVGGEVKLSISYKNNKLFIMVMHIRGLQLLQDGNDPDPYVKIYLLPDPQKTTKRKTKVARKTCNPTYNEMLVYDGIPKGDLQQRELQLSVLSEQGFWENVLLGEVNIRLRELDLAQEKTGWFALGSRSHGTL

[26] = molecular target: T1, Phosphatidylinositol 4-phosphate 3-kinase C2 domain-containing subunit beta; assay: Inhibition of human PIK3C2B using PIP2/PS as substrate by ADP-Glo assay

CC(C)(O)CNc1ncc(-c2ccnc(Nc3ccnc(Cl)c3)n2)c(CC2CC2)n1
120%: Activity [1]
108%: Activity [4]
88%: Activity [5]
> 10 µM: IC50 [26]
inactive: inhibition [6] | inhibition [7] | inhibition [8] | inhibition [9] | inhibition [10] | inhibition [11] | inhibition [12] | inhibition [13] | inhibition [14] | inhibition [15] | inhibition [16] | inhibition [17] | inhibition [18] | inhibition [19] | inhibition [20] | inhibition [21] | inhibition [22] | inhibition [23] | inhibition [24] | inhibition [25]
112%: Activity [3]
116%: Activity [2]
